“Also recorded” adds a separate entry of the source.
Assays:
[1] = Association analysis of cognitive performance (MoCA score) and medication history in female AD patients; assay type: in vivo, human; conditions: association with medication history, P=0.0202
Description: (§1) Subject Recruitment for the Hong Kong Chinese AD Cohort: A cohort of Hong Kong Chinese was recruited from individuals who visited the Specialist Outpatient Department of the Prince of Wales Hospital, the Chinese University of Hong Kong. A total of 427 subjects were recruited: 233 with AD and 194 normal controls (NCs). All subjects were ≥60 years old. The clinical diagnosis of AD was established based on the American Psychiatric Association's Diagnostic and Statistical Manual of Mental Disorders, Fifth Edition (DSM-5). All subjects were given medical history assessment, cognitive and functional assessment through the Montreal Cognitive Assessment (MoCA) test, and neuroimaging assessment by MRI. Each individual's data, including age, sex, education, medical history, and cardiovascular disease history, were recorded. Individuals with any significant neurological disease or psychiatric disorder were excluded. The plasma of subjects was collected and stored at −80° C. as aliquots until use. This study was approved by the Prince of Wales Hospital, the Chinese University of Hong Kong, and the Hong Kong University of Science and Technology. All participants provided written informed consent for both study enrollment and sample collection. Absolute blood cell count was determined by complete blood count (CBC) at the Prince of Wales Hospital. […]

[2] = tested on: serum sST2; experiment: Trazodone treatment of mice, serum sST2 level by ELISA; assay type: in vivo, mouse; conditions: 18 mo
Description: Trazodone treatment of mice: Mice were treated with Trazodone or vehicle control either by intraperitoneal (IP) injection or oral administration. For IP injection, mice were daily injected with 50 mg/kg Trazodone or vehicle (saline). For oral administration, mice were daily fed with 100 mg/kg Trazodone or vehicle (water). After the 2 days, 4 days, 7 days or 14 days of treatment, mouse blood was collected by intracardial bleed at time of sacrifice. The blood without anticoagulants was incubated at room temperature for 2 h and then centrifuged at 2,000×g for 20 min. The serum sST2 level was measured using the Mouse ST2/IL-33 R Quantikine ELISA Kit (MST200, R&D).

[3] = tested on: plasma sST2 protein; experiment: Association analysis of plasma sST2 protein level (ELISA) and medication in Hong Kong female AD patients; assay type: in vivo, human; conditions: female AD patients taking trazodone (n=15) vs not taking (n=149), Hong Kong Chinese AD cohort, linear regression adjusted for age and population structure, ***P<0.001
Description: as §1, with “This study was approved by the Prince of Wales Hospital, the Chinese University of Hong Kong, and the Hong Kong University of Science and Technology. All participants provided written informed consent for both study enrollment and sample collection.” left out
Detection of Soluble ST2 Protein by ELISA: Human plasma and CSF soluble ST2 (sST2) protein levels were measured using the Human ST2/IL-33 R Quantikine ELISA Kit (DST200). […]

O=c1n(CCCN2CCN(c3cccc(Cl)c3)CC2)nc2ccccn12 [Trazodone, trazodone]
cognitive performance (MoCA score) [1]: altered cognitive performance | serum sST2 level ([2]; female APP/PS1 mice, daily 100 mg/kg oral for 7 or 14 days vs vehicle, n=5/group, 100 mg/kg): reduction of serum sST2 level; also recorded: down-regulates the serum sST2 level | serum sST2 level ([2]; female wildtype mice, daily 50 mg/kg IP or 100 mg/kg oral for 2 or 4 days vs vehicle, n=2/group): reduction of serum sST2 level; also recorded: down-regulates the serum sST2 level | plasma sST2 level [3]: decreased plasma sST2 level | plasma sST2 level ([3]; listed as trazodone): effective agent to lower plasma sST2 level
